Laboratory results: PubChem BioAssay (NCI)
Values joined by “and” are separate entries in the source; they are usually repeats but may differ in a detail not shown here. Equal values may be shown once.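 1) Cells in 96-well plates. 2) Compound, 48 h, 5 concentrations. 3) Linear interpolation between surrounding doses. 4) Unreached endpoint = highest concentration. Here, GI50 denotes the concentration required for 50% inhibition of growth. At the TGI there is no net growth.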

What was measured:
Experiment in all cases: inhibition of tumour cell growth, NCI panel, 48 h
OVCAR-4 ovarian = system: OVCAR-4 ovarian
NCI-H23 lung = system: NCI-H23 lung
A498 renal = system: A498 renal
KM12 colon = system: KM12 colon
TK-10 renal = system: TK-10 renal
NCI-H226 lung = system: NCI-H226 lung
UACC-62 melanoma = system: UACC-62 melanoma
MDA-MB-231 breast = system: MDA-MB-231 breast
HCT-116 colon = system: HCT-116 colon
SR leukemia = system: SR leukemia

Row | Compound | GI50 (OVCAR-4 ovarian) | TGI (OVCAR-4 ovarian) | GI50 (NCI-H23 lung) | TGI (NCI-H23 lung) | GI50 (A498 renal) | TGI (A498 renal) | GI50 (KM12 colon) | TGI (KM12 colon) | GI50 (TK-10 renal) | TGI (TK-10 renal) | GI50 (NCI-H226 lung) | TGI (NCI-H226 lung) | GI50 (UACC-62 melanoma) | TGI (UACC-62 melanoma) | GI50 (MDA-MB-231 breast) | TGI (MDA-MB-231 breast) | GI50 (HCT-116 colon) | TGI (HCT-116 colon) | GI50 (SR leukemia) | TGI (SR leukemia)
1 | Cc1ccc2c(C(C[N+](=O)[O-])c3ccccc3)c(-c3ccccc3)[nH]c2c1 (stereo not given) | 42.4 µM | > 95 µM | 47 µM | > 95 µM | 24.9 µM | > 95 µM | 21.6 µM | > 95 µM | > 95 µM | > 95 µM | 62.4 µM | > 95 µM | 14.1 µM | > 95 µM | 35.9 µM | > 95 µM | 30.2 µM | > 95 µM | 4.54 µM | > 95 µM
2 | CCOC(=O)C(=Cc1ccc(C#N)cc1)C(=O)OCC | 3.44 µM | 12.6 µM | 2.15 µM | 5.53 µM | 7.84 µM | 20.1 µM | 2.86 µM | 8.8 µM | 2.28 µM | 7.3 µM | 2.51 µM | 6.33 µM | 1.99 µM | 4.54 µM | 2.69 µM | 6.95 µM | 2.15 µM | 4.22 µM | 1.31 µM | > 100 µM
3 | O=C1C2CCN(CC2)C1CN1CCOCC1 (stereo not given) |  | 10.7 µM |  | 23.9 µM |  | 31.2 µM |  | 30.8 µM |  | 13.2 µM |  | 26.5 µM |  | 30.9 µM |  | 40.5 µM |  | 3.73 µM |  | 35.5 µM
4 | COc1ccc(Br)cc1NC(=O)Nc1cccc2c1ccn2Cc1ccnc(N)c1 | 3.85 µM and 5.52 µM | > 47.8 µM | 14.5 µM and > 10 µM | 40.7 µM and > 10 µM | 2.41 µM and 4.12 µM | 11.6 µM and > 10 µM | 2.57 µM and 4.27 µM | 8.23 µM and > 10 µM | 5.33 µM and 7.07 µM | 16.6 µM and > 10 µM | 6.45 µM and 8.39 µM | 48.4 µM and > 10 µM | 6.17 µM and 5.94 µM | 21.7 µM and > 10 µM | 3.93 µM and 3.01 µM | 10.6 µM and > 10 µM | 5.85 µM and 5.75 µM | 19.5 µM and > 10 µM | 2.51 µM and 3.11 µM | 15.5 µM and > 10 µM
5 | COc1ccc2cc(-c3cnc4nonc4n3)ccc2c1 | 5.99 µM | > 100 µM | 4.49 µM | > 100 µM | 1.15 µM | 8.79 µM | 2.03 µM | > 100 µM | 10.6 µM | > 100 µM | 6.43 µM | > 100 µM | 2.32 µM | > 100 µM | 14.1 µM | > 100 µM | 2.12 µM | > 100 µM | 0.423 µM | > 100 µM
6 | OC1CC2CCC(C1)N2CCCN1c2ccccc2Sc2ccc(Cl)cc21 (stereo not given) |  | 13.6 µM |  | 8.12 µM |  | 5.62 µM |  | 4.08 µM |  | 3.61 µM |  | 15.2 µM |  | 3.39 µM |  | 3.66 µM |  | 3.64 µM |  | 5.34 µM
7 | O=C(c1c(F)c(F)c(F)c(F)c1F)c1c(F)c(F)c(F)c(F)c1F |  | 3.14 µM |  | 7.87 µM |  | 9.16 µM |  | 2.04 µM |  | 2.47 µM |  | 8.96 µM |  | 3.97 µM |  | 3.46 µM |  | 2.96 µM |  | 1.07 µM
8 | NC(=S)N/N=C/c1ccc(OC(=O)COc2cc(Cl)c(Cl)cc2Cl)cn1 | 4.83 µM | > 100 µM | 3.26 µM | > 100 µM | 14.2 µM | > 100 µM | 5.68 µM | > 100 µM | 41.9 µM | > 100 µM | 15.8 µM | 56.7 µM | 3.46 µM | 22.4 µM | 4.53 µM | > 100 µM | 4.25 µM | > 100 µM | 4.7 µM | > 100 µM
